Laboratory results from PubChem BioAssay (NCI).
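Results reflect a 48-hour exposure of cells in 96-well plates to compound at five concentrations. TGI denotes the concentration required for complete inhibition of growth.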

Legend:
Test in all cases: NCI-60 cell line screen, 48 h
HOP-62 NSCLC = test system: HOP-62 NSCLC
TK-10 renal = test system: TK-10 renal
HCT-15 colon = test system: HCT-15 colon
UO-31 renal = test system: UO-31 renal
SK-MEL-5 melanoma = test system: SK-MEL-5 melanoma
OVCAR-5 ovarian = test system: OVCAR-5 ovarian
MDA-MB-435 = test system: MDA-MB-435
HOP-92 NSCLC = test system: HOP-92 NSCLC
SK-MEL-2 melanoma = test system: SK-MEL-2 melanoma
EKVX NSCLC = test system: EKVX NSCLC
M14 melanoma = test system: M14 melanoma
OVCAR-3 ovarian = test system: OVCAR-3 ovarian
HT29 colon = test system: HT29 colon
MALME-3M melanoma = test system: MALME-3M melanoma
SR leukemia = test system: SR leukemia
MOLT-4 leukemia = test system: MOLT-4 leukemia
HS 578T breast = test system: HS 578T breast
IGROV1 ovarian = test system: IGROV1 ovarian

## CN(C)C1(N(C)C)Oc2c(c(=O)n(C)c(=O)n2C)C(c2ccc(C(F)(F)F)cc2)C1(F)F (centres undefined)
HOP-62 NSCLC
  TGI: > 100 µM
TK-10 renal
  TGI: > 100 µM
HCT-15 colon
  TGI: > 100 µM
UO-31 renal
  TGI: > 100 µM
SK-MEL-5 melanoma
  TGI: > 100 µM
OVCAR-5 ovarian
  TGI: > 100 µM
MDA-MB-435
  TGI: > 100 µM
HOP-92 NSCLC
  TGI: > 100 µM
SK-MEL-2 melanoma
  TGI: > 100 µM
EKVX NSCLC
  TGI: > 100 µM
M14 melanoma
  TGI: > 100 µM
OVCAR-3 ovarian
  TGI: > 100 µM

## CC(=O)Nc1ccc2c3c(cc(O)c2c1)N(C(=O)CCCCC(=O)N1CC(CCl)c2c1cc(O)c1cc(NC(C)=O)ccc21)CC3CCl (centres undefined)
HOP-62 NSCLC
  TGI: 8.78 µM
TK-10 renal
  TGI: 11.9 µM
HT29 colon
  TGI: > 30.4 µM
MALME-3M melanoma
  TGI: 0.575 µM
HCT-15 colon
  TGI: > 70.6 µM
UO-31 renal
  TGI: > 44.6 µM
SK-MEL-5 melanoma
  TGI: 0.391 µM
OVCAR-5 ovarian
  TGI: 8.54 µM
MDA-MB-435
  TGI: 0.71 µM
SR leukemia
  TGI: 0.0278 µM
SK-MEL-2 melanoma
  TGI: 0.316 µM
MOLT-4 leukemia
  TGI: 0.0176 µM
EKVX NSCLC
  TGI: 12.8 µM
M14 melanoma
  TGI: 1.16 µM

## CC(=O)OC1OC(c2ccoc2)C[C@@]12C1CCC3O[C@]3(C)[C@]1(C)[C@H](OC(C)=O)[C@H](OC(C)=O)[C@H]2C (some centres undefined)
HOP-62 NSCLC
  TGI: > 37.5 µM
HS 578T breast
  TGI: > 37.5 µM
TK-10 renal
  TGI: > 37.5 µM
HT29 colon
  TGI: > 37.5 µM
MALME-3M melanoma
  TGI: > 37.5 µM
HCT-15 colon
  TGI: > 37.5 µM
UO-31 renal
  TGI: > 37.5 µM
SK-MEL-5 melanoma
  TGI: > 37.5 µM
OVCAR-5 ovarian
  TGI: > 37.5 µM
SR leukemia
  TGI: > 37.5 µM
HOP-92 NSCLC
  TGI: > 37.5 µM
SK-MEL-2 melanoma
  TGI: > 37.5 µM
IGROV1 ovarian
  TGI: > 37.5 µM
MOLT-4 leukemia
  TGI: > 37.5 µM
EKVX NSCLC
  TGI: > 37.5 µM
M14 melanoma
  TGI: > 37.5 µM
OVCAR-3 ovarian
  TGI: > 37.5 µM

## c1cc(-c2ccc(-c3nc4ccc(C5=NCCN5)cc4s3)s2)ccc1C1=NCCN1
HOP-62 NSCLC
  TGI: 0.257 µM
TK-10 renal
  TGI: 2.42 µM
HT29 colon
  TGI: 2.08 µM
MALME-3M melanoma
  TGI: 1.4 µM
HCT-15 colon
  TGI: 16.6 µM
UO-31 renal
  TGI: 2.61 µM
OVCAR-5 ovarian
  TGI: 0.327 µM
SR leukemia
  TGI: 1.43 µM
HOP-92 NSCLC
  TGI: 1.08 µM
SK-MEL-2 melanoma
  TGI: 2.96 µM
IGROV1 ovarian
  TGI: 2.52 µM
MOLT-4 leukemia
  TGI: 0.879 µM
EKVX NSCLC
  TGI: 2.69 µM
OVCAR-3 ovarian
  TGI: 5.25 µM

## O=C(c1ccco1)N(C(=S)N1CCN(c2ccccc2)CC1)C1CCCCC1
HOP-62 NSCLC
  TGI: > 100 µM
TK-10 renal
  TGI: > 100 µM
HT29 colon
  TGI: > 100 µM
MALME-3M melanoma
  TGI: > 100 µM
HCT-15 colon
  TGI: > 100 µM
UO-31 renal
  TGI: > 100 µM
SK-MEL-5 melanoma
  TGI: > 100 µM
OVCAR-5 ovarian
  TGI: > 100 µM
SR leukemia
  TGI: > 100 µM
HOP-92 NSCLC
  TGI: > 100 µM
SK-MEL-2 melanoma
  TGI: > 100 µM
IGROV1 ovarian
  TGI: > 100 µM
MOLT-4 leukemia
  TGI: > 100 µM
M14 melanoma
  TGI: > 100 µM
OVCAR-3 ovarian
  TGI: > 100 µM

## COc1cc2c(oc(=O)c3c4occc4cc(OC)c23)c2cccc(OCc3ccccc3)c12
HOP-62 NSCLC
  TGI: > 100 µM
TK-10 renal
  TGI: > 100 µM
HT29 colon
  TGI: > 100 µM
MALME-3M melanoma
  TGI: > 100 µM
HCT-15 colon
  TGI: > 100 µM
UO-31 renal
  TGI: > 100 µM
SK-MEL-5 melanoma
  TGI: > 100 µM
OVCAR-5 ovarian
  TGI: > 100 µM
SR leukemia
  TGI: > 100 µM
HOP-92 NSCLC
  TGI: > 100 µM
SK-MEL-2 melanoma
  TGI: > 100 µM
IGROV1 ovarian
  TGI: > 100 µM
MOLT-4 leukemia
  TGI: > 100 µM
EKVX NSCLC
  TGI: > 100 µM
M14 melanoma
  TGI: > 100 µM
OVCAR-3 ovarian
  TGI: > 100 µM

## CCC(=O)NI1OC(=O)c2ccccc21
HOP-62 NSCLC
  TGI: > 100 µM
TK-10 renal
  TGI: > 100 µM
HT29 colon
  TGI: > 100 µM
HCT-15 colon
  TGI: > 100 µM
UO-31 renal
  TGI: > 100 µM
SK-MEL-5 melanoma
  TGI: > 100 µM
OVCAR-5 ovarian
  TGI: > 100 µM
MDA-MB-435
  TGI: > 100 µM
SR leukemia
  TGI: > 100 µM
HOP-92 NSCLC
  TGI: > 100 µM
SK-MEL-2 melanoma
  TGI: > 100 µM
IGROV1 ovarian
  TGI: > 100 µM
MOLT-4 leukemia
  TGI: > 100 µM
EKVX NSCLC
  TGI: > 100 µM
M14 melanoma
  TGI: > 100 µM
OVCAR-3 ovarian
  TGI: > 100 µM
